Experimental findings from publication PMC10597491 (PLOS ONE, 2023) are described below.

The target of assay [1] is T1, cynomolgus IL-7Rα (Macaca fascicularis, UniProt Q38IC7).
T1 construct: cynomolgus IL-7Rα(aa 21–235)-His6, Sino Biological Cat# 90332-C08H; His6 (C); purchased Sino Biological 90332-C08H
T1 sequence (Q38IC7 21-235): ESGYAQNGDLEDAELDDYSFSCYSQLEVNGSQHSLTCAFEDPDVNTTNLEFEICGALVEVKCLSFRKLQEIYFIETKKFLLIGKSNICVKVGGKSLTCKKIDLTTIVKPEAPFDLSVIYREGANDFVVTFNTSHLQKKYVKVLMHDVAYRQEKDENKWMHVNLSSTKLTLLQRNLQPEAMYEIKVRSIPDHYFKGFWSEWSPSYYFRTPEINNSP
In words: Competition binding ELISA, cynomolgus IL-7Rα ECD. Conditions: immobilized cynomolgus IL-7Rα-His6 ECD; biotinylated peptide/NA-HRP tracer; read-out: Competition ELISA IC50, IL-7Rα Cyno. The source says:
(§1) (A, B) Determination of IC50 values in a competition ELISA for compound binding to human and cyno IL-7Rα and γc. The assay format is IL-7Rα-(His)6-tagged ECD or Fc-γc ECD immobilized on 96-well plates. Tracers are C-terminal biotinylated forms of the reference IL-7Rα and γc peptide ligands, each pre-complexed with Neutravidin-HRP (NA-HRP). (C, D) Label-free measurement of the equilibrium dissociation constant (KD) for peptide binding to IL-7Rα and γc extracellular domains with peptides was performed by biolayer interferometry as detailed in methods. Red lines depict 1:1 binding fit from Gator™ software. Blue lines represent individual BLI sensogram data taken every 0.1 seconds.
(§2) Binding was determined using a competition binding ELISA. Microtiter plates (Immulon 4HBX flat bottom 96-well) were coated with 50 μL of […] human ECDs: IL-7Rα(aa 21–236)-His6, Sino Biological Cat# 10975-H08H; cynomolgus IL-7Rα(aa 21–235)-His6, Sino Biological Cat# 90332-C08H; human IL-2Rα(aa 23–254)-Fc, Acro Cat# ILG-H5256; cynomolgus IL-2Rα(aa 23–254)-Fc, made in-house, in PBS overnight at 4°C. […] Plates were washed with cold wash buffer, and bound tracer was detected using TMB One Component HRP substrate and Stop Solution (Surmodics Cat# TMBW-1000-01 and LSTP-0100-01). Absorbance at 450 nm was read using Agilent BioTek Synergy HTX Multimode Reader.

Assay [2] deals with T2, human IL-7Rα ECD (Homo sapiens, UniProt P16871).
T2 construct: IL-7Rα(aa 21–236)-His6, Sino Biological Cat# 10975-H08H; His6 (C); purchased Sino Biological 10975-H08H
T2 sequence (P16871 21-236): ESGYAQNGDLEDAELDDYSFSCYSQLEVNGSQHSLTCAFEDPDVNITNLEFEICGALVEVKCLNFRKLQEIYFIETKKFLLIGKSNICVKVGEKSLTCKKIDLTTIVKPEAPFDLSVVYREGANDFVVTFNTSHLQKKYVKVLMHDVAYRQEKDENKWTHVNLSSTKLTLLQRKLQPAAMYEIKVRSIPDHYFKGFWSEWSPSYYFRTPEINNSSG
In words: Competition binding ELISA, human IL-7Rα ECD. Conditions: immobilized IL-7Rα-(His)6 ECD; tracer biotinylated MDK1248 pre-complexed with Neutravidin-HRP; 4°C; valency-sensitive format.
From the text: as §1, §2
Background: In an ELISA, binding on a coated surface is turned into a signal by an enzyme label.

For assay [3], the target named is T3, IL-7R (Homo sapiens, UniProt P16871+P31785).
T3 construct: constructed to express full-length human IL-7Rα in TF-1 cells; TF-1 cells, which naturally express γc, but not IL-7Rα; expressed in transfected cells
T3 sequence (P16871 21-459): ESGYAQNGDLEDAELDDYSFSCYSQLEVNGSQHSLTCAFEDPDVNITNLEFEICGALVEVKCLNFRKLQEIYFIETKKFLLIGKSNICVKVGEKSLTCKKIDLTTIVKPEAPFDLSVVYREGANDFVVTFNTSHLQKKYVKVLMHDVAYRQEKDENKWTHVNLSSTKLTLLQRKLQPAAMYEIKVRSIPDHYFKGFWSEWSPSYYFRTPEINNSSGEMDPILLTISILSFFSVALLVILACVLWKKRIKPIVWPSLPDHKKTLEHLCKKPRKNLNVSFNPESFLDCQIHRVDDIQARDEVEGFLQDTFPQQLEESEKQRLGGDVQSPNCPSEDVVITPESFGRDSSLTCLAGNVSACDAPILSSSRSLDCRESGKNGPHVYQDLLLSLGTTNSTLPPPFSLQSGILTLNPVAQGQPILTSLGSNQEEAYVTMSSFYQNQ
T3 sequence (P31785 23-369): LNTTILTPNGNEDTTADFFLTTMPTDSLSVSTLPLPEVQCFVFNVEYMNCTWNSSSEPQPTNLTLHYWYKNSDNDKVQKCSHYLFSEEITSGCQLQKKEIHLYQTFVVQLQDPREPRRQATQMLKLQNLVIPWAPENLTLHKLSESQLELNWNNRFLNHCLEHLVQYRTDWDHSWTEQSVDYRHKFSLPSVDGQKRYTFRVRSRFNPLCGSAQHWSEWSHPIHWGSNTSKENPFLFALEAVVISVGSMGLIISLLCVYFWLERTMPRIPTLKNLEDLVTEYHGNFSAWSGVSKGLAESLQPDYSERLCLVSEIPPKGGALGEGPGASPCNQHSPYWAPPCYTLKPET
In words: STAT5 phosphorylation in TF1-7Rα cells. It is filed as cell-based. The following applies: TF1-7Rα cells, 10 μM peptide alone. As for the experimental part: The synthetic peptide MDK1472 was designed to bind simultaneously to IL-7Rα and γc subunits and was tested for its ability to induce phosphorylation of STAT5, the primary IL-7R signaling pathway.
Reactions were stopped and cell lysates prepared for pSTAT5 analysis.
(§3) Cells were deprived of growth factors by overnight incubation at 5×10^5 cells/mL in starvation medium (RPMI 1640 + 4.5 g/L glucose + 0.2% FBS + 2 mM L-glutamine + 1 mM NaPyr + 10 mM HEPES + 0.5x penicillin-streptomycin with no cytokine supplement) in T75 flasks. For assays, cells were plated in 96-well V-bottom plates at 2×10^5 cells/well. Three-fold serial dilutions in starvation medium of the test compounds or cytokine were added to the cells and incubated for 30 min at 37°C. Following incubation, cell extracts were prepared by adding a mixture of 10x Cell Lysis Buffer (Cell Signaling Technology Cat# 9803) and 100x HALT Phosphatase and Protease Inhibitor Cocktail (Thermo Fisher Cat# 78442) directly to the wells. The plates were agitated at 25°C for 5 min to prepare cell extracts for immediate use or to be stored at -80°C until assay. Detection of pSTAT5 was performed using a PathScan® Phospho-Stat5 (pTyr694) Sandwich ELISA Kit (Cell Signaling Technology Cat# 7113). Detection of pSTAT6 was performed using a PathScan® Phospho-Stat6 (pTyr641) Sandwich ELISA Kit (Cell Signaling Technology Cat# 7275). Detection of pSTAT3 was performed using a PathScan® Phospho-Stat3 (pTyr705) Sandwich ELISA Kit (Cell Signaling Technology Cat# 7300). Cell lysates were added to pre-coated ELISA wells and incubated at 4°C overnight. Primary and secondary antibody incubations and wash steps were performed according to the protocols supplied by the manufacturer. Assays were developed using TMB substrate (Surmodics Cat# TMBW-1000-01) for 5–10 min at 25°C and the reaction was stopped using STOP solution (Surmodics Cat# LSTP-1000-01).

The target in assay [4] is T4, IL-2βγc receptor (Homo sapiens, UniProt P31785).
T4 construct: pcDNA3.1 expression vector encoding full-length IL-2Rβ, IL-7Rα, IL-9Rα, or IL-21Rα; TF-1 cells naturally express γc and IL-4Rα; expressed in transfected cells
T4 sequence (P31785 23-369): T3 sequence (P31785 23-369)
In words: IL-2-induced pSTAT5 in TF-1 cells expressing IL-2/15Rβ. In kind it is cell-based. The procedure:
as §3, with “Primary and secondary antibody incubations and wash steps were performed according to the protocols supplied by the manufacturer. Assays were developed using TMB substrate (Surmodics Cat# TMBW-1000-01) for 5–10 min at 25°C and the reaction was stopped using STOP solution (Surmodics Cat# LSTP-1000-01).” left out

The target of assay [5] is T5, human γc ECD (Homo sapiens, UniProt P31785).
T5 construct: human IL-2Rα(aa 23–254)-Fc, Acro Cat# ILG-H5256; purchased Acro ILG-H5256
T5 sequence (P31785 23-254): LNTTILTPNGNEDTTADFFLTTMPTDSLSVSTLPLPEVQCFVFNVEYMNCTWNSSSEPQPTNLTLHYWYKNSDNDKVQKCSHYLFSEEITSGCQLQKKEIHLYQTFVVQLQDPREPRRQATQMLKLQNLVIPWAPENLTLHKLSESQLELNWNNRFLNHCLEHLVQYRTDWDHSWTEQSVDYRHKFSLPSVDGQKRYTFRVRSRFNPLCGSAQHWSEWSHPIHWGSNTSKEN
In words: Competition binding ELISA, human γc ECD. The following applies: immobilized Fc-γc ECD; tracer biotinylated MDK1188 pre-complexed with Neutravidin-HRP; 4°C.
From the text: as §1, §2

Bridge positions count the residues as written; N and C are the ends. Peptide text beside a SMILES is read from it.

As for `CC[C@H](C)[C@H](NC(=O)CNC(=O)[C@H](Cc1c[nH]c2ccccc12)NC(=O)CN)C(=O)N1CCC[C@H]1C(=O)N[C@@H](Cc1c[nH]c2ccccc12)C(=O)N[C@H]1CSSC[C@@H](C(=O)N[C@@H](C)C(=O)N[C@@H](Cc2c[nH]c3ccccc23)C(=O)N[C@@H](CC(C)C)C(=O)NCC(=O)N[C@@H](CCCCN)C(=O)N[C@@H](Cc2c[nH]cn2)C(=O)NCC(=O)NCC(=O)O)NC(=O)[C@H](CCC(N)=O)NC(=O)[C@H](CC(C)C)NC(=O)[C@H](CO)NC(=O)CNC(=O)[C@@H]2CCCN2C(=O)[C@H](CC(=O)O)NC(=O)[C@H](CC(C)C)NC(=O)[C@H]([C@@H](C)O)NC1=O` [MDK1248] (H-GWGIPWCTLDPGSLQCAWLGKHGG-OH; disulfide 7-16), the figures for the IC50 in assay [1] and in assay [2] were 92 nM and 150 nM, respectively. The “induction of pSTAT5 by individual peptide ligands” value in assay [3] was “no induction of pSTAT5”.

Regarding `CC(C)C[C@@H]1NC(=O)[C@H](CCC(=O)O)NC(=O)[C@H](C(C)C)NC(=O)CNC(=O)[C@H](CCC(=O)O)NC(=O)[C@H](Cc2c[nH]c3ccccc23)NC(=O)[C@H](CC(=O)O)NC(=O)[C@H](CCC(N)=O)NC(=O)[C@@H](NC(=O)[C@@H](NC(=O)[C@@H](NC(=O)CNC(=O)CN)C(C)C)C(C)C)CSSC[C@@H](C(=O)N[C@@H](Cc2c[nH]c3ccccc23)C(=O)N[C@@H](CCC(N)=O)C(=O)NCC(=O)NCC(=O)O)NC1=O` [MDK1188], the IC50 was 1600 nM in assay [4] and 24 nM in assay [5]. For the same compound, the “induction of pSTAT5 by individual peptide ligands” value in assay [3] was “no induction of pSTAT5”.

A word on the IC50: it is the point on the concentration scale where inhibition reaches its midpoint.
